The values below come from publication PMC12257413, “Discovery of a Novel sp^3‑Rich M1 Positive Allosteric Modulators (PAMs) Chemotype via Scaffold Hopping” (ACS Medicinal Chemistry Letters, 2025).

Where a chain is given by its changes, count along the chain named.

The target in experiment [1] is T1, rat muscarinic receptor subtype 1 (M1) (Rattus norvegicus, UniProt P08482).
T1 construct: expressed in transfected cells
T1 sequence (P08482 1-460): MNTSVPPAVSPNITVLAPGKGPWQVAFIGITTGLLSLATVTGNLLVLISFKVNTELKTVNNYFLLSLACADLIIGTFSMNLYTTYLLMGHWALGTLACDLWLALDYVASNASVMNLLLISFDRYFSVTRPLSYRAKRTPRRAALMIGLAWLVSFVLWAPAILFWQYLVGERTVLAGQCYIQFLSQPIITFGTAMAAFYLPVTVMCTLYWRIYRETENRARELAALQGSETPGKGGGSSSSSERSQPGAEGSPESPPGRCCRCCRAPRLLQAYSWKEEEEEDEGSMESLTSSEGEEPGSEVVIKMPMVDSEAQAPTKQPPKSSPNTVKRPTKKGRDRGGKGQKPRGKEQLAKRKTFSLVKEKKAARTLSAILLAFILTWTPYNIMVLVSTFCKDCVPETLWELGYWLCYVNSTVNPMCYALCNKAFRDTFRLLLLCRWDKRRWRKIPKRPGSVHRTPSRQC
The experiment in a line: Calcium mobilization assay in rM1-CHO cells, PAM activity with EC20 acetylcholine. Type of experiment: cell-based. The settings on record: for EC50: read-out: rM1 pEC50 ± SEM (converted). Here is the method:
(§1) page 2: Procedures for Biological Experiments Calcium mobilization assays: To measure the functional activity of positive allosteric modulator (PAM) compounds in a cellular assay, human or rat muscarinic receptor subtype 1 (M1) was stably expressed in the Chinese hamster ovary (CHO) cells to evoke an increase in intracellular calcium to an EC20 concentration of acetylcholine (ACh) agonist. The stable M1-CHO cells were cultured in F12 medium containing 10% fetal bovine serum, 20 mM HEPES, 100 units/mL antibiotics/antimycotic, 0.5 mg/ml G418. All reagents used were from Life Technologies (Carlsbad, CA) unless otherwise noted. Briefly, the day before the assay, stable M1-CHO cells (15,000 cells/20 μL/well) were plated in black-walled, clear-bottomed, 384 well plates (Greiner Bio-One, Monroe, NC) in the culture medium without G418, and then incubated overnight at 37 °C in the presence of 5% CO2. The next day, calcium assay buffer (Hank’s balanced salt solution (HBSS), 20 mM HEPES, 2.5 mM Probenecid, 4.16 mM sodium bicarbonate (Sigma-Aldrich, St. Louis, MO) was prepared to dilute […] calcium indicator dye. […] curves in DMSO using the Bravo Liquid Handler (Agilent, Santa Clara, CA), transferred to a 384 well daughter plates using an Echo acoustic liquid handler (Beckman Coulter, Indianapolis, Indiana), and diluted in assay Buffer to a 2X final concentration. The agonist plates were prepared using acetylcholine (ACh, Sigma-Aldrich, St. Louis, MO) concentrations for the EC20 and ECMAX responses by diluting in assay buffer to a 5X final concentration. The 2X dye solution (2.3 µM) was prepared by mixing a 2.3 mM Fluo-4-AM stock in DMSO with 10% (w/v) pluronic acid F- 127 in a 1:1 ratio in assay buffer. Using a microplate washer (BioTek, Winooski, VT), cells were washed with assay buffer for 3 times to remove medium. After the final wash, 20 μL of assay buffer remained in the cell plates. Immediately, 20 μL of the 2X dye solution (final 1.15 µM) was added to each well of the cell plate using a Multidrop Combi dispenser (Thermo Fisher, Waltham, MA). After cells were incubated with the dye solutions for 45 min at 37 °C in the presence of 5% CO2, the dye solutions were removed and replaced with assay buffer using a microplate washer, leaving 20 μL of assay buffer in the cell plate. The compound, agonist, and cell plates were placed inside the Functional Drug Screening System uCell (FDSS uCell, Hamamatsu, Japan) to measure the calcium flux. The triple add protocol was used to measure Ca kinetics; Compound, ACh for EC20, and ACh for ECMAX adds in an order. Briefly, after establishment of a fluorescence baseline S2 page 3: for 2 seconds (excitation, 480 nm; emission, 530 nm), first add occurred by adding 20 µL of test compound to the cells, and the response was measured for 140 seconds. This is followed by second add; 10 µL (5X) of an EC20 concentration of ACh agonist was added to the cells, and the response of the cells was measured for 125 seconds. Immediately, the third add occurred by adding 12 ul assay buffer or 5X of an EC max concentration of ACh and the response of the cells was measured for 90 seconds. Assay buffer was added to the wells that incubated with compounds followed by EC20 concentration of ACh. Agonists containing ECmax concentration of ACh were added to the wells that incubated with DMSO and assay buffer from the 1st and 2nd adds to measure maximum Ca responses (ECmax). Calcium fluorescence was recorded as fold over basal fluorescence and raw data were normalized to the maximal response to ACh agonist. […]
A general note: Calcium flux is commonly read through the fluorescence of an indicator in the cells.

Experiment [2] addresses T2, human muscarinic receptor subtype 1 (M1) (Homo sapiens, UniProt P11229).
T2 sequence (P11229 1-460): T1 sequence (P08482 1-460) with V5A, S254T, S309P, K320R, G337A, V413I
Briefly: Calcium mobilization assay in hM1-CHO cells, PAM activity with EC20 acetylcholine. The settings on record: for EC50: read-out: hM1 pEC50 ± SEM (converted). Type of experiment: cell-based. The method, then: as §1

`Cn1cc(-c2ccc(Cc3cc(C(=O)N[C@H]4CC[C@@H]4O)nn3-c3ccccc3)cc2)cn1` [17d]: in experiment [1], the “rM1 %ACh Max ± SEM” value is recorded as 51 ± 3.9 %ACh Max and the EC50 is above 10 µM. Further, in experiment [2], the “hM1 %ACh Max ± SEM” value is recorded as 48 ± 7.4 %ACh Max and the EC50 is above 10 µM.

Turning to `Cn1cc(-c2ccc(Cc3cc(C(=O)N[C@H]4CCCCC[C@@H]4O)nn3C3CCCC3)cc2)cn1` [17l], in experiment [1], the “rM1 %ACh Max ± SEM” value turned out to be 81 ± 3.8 %ACh Max and the EC50 is 0.724 µM. In experiment [2], the “hM1 %ACh Max ± SEM” value was determined as 79 ± 4.4 %ACh Max and the EC50 is 0.661 µM.

For the molecule `Cn1cc(-c2ccc(Cc3cc(C(=O)N[C@H]4CCOC[C@@H]4O)nn3C3CCCCC3)cc2)cn1` [17h], in experiment [1], the “rM1 %ACh Max ± SEM” value turned out to be 80 ± 7.1 %ACh Max and the EC50 is 1.48 µM. Besides, in experiment [2], the “hM1 %ACh Max ± SEM” value was 73 ± 3.1 %ACh Max and the EC50 is 4.9 µM.

For the molecule `Cn1cc(-c2ccc(Cc3cc(C(=O)N[C@H]4CCOC[C@@H]4O)nn3Cc3ccccc3)cc2)cn1` [17f], in experiment [1], the “rM1 %ACh Max ± SEM” value is reported as 57 ± 4.6 %ACh Max. The EC50 in experiment [1] and in experiment [2] was above 10 µM in each case.

Turning to `Cn1cc(-c2ccc(Cc3cc(C(=O)N[C@H]4CCOC[C@@H]4O)nn3-c3ccccc3)cc2)cn1` [17b], in experiment [1], the “rM1 %ACh Max ± SEM” value was found to be 84 ± 4.6 %ACh Max and the EC50 was 1.2 µM. Further, in experiment [2], the “hM1 %ACh Max ± SEM” value is given as 74 ± 0.6 %ACh Max and the EC50 was 2 µM.

On to `Cn1cc(-c2ccc(Cc3cc(C(=O)NC4CC(F)C4)nn3C3CCCC3)cc2)cn1` (stereo not shown) [17o], for which, in experiment [1], the “rM1 %ACh Max ± SEM” value amounted to 50 ± 3.7 %ACh Max and the EC50 was above 10 µM. In addition, in experiment [2], the “hM1 %ACh Max ± SEM” value was 46 ± 1.1 %ACh Max and the EC50 is above 10 µM.

Regarding `Cn1cc(-c2ccc(Cc3cc(C(=O)N[C@@H]4CCOC[C@H]4F)nn3C3CCCC3)cc2)cn1` [17n], in experiment [1], the “rM1 %ACh Max ± SEM” value worked out at 72 ± 3.8 %ACh Max and the EC50 was 4.17 µM. In experiment [2], the “hM1 %ACh Max ± SEM” value is given as 67 ± 2.5 %ACh Max and the EC50 was 6.61 µM.

For `Cn1cc(-c2ccc(Cc3cc(C(=O)NC4CC5(COC5)C4)nn3C3CCCC3)cc2)cn1` [17p], in experiment [1], the “rM1 %ACh Max ± SEM” value came to 76 ± 4.2 %ACh Max and the EC50 is 1.91 µM. In experiment [2], the “hM1 %ACh Max ± SEM” value came to 78 ± 8.8 %ACh Max and the EC50 was 2.95 µM.

Take `CNC(=O)c1ccc(Cc2cc(C(=O)N[C@H]3CCOC[C@@H]3O)nn2C2CCCC2)cc1` [compound 21]: the figures for the EC50 in experiment [1] and in experiment [2] were 0.794 µM and 1.26 µM, respectively.

As to `Cn1cc(-c2ccc(Cc3cc(C(=O)N[C@H]4CCCC[C@@H]4O)nn3-c3ccccc3)cc2)cn1` [17a], in experiment [1], the “rM1 %ACh Max ± SEM” value was 80 ± 3.8 %ACh Max and the EC50 is 2.51 µM. For the same molecule, in experiment [2], the “hM1 %ACh Max ± SEM” value is listed as 70 ± 1.5 %ACh Max and the EC50 was 3.02 µM.

`Cn1cc(-c2ccc(Cc3cc(C(=O)N[C@H]4CCC[C@@H]4O)nn3-c3ccccc3)cc2)cn1` [17c]: in experiment [1], the “rM1 %ACh Max ± SEM” value is recorded as 69 ± 4.3 %ACh Max and the EC50 was above 10 µM. Besides, in experiment [2], the “hM1 %ACh Max ± SEM” value was 58 ± 3.0 %ACh Max and the EC50 was above 10 µM.

Consider `Cn1cc(-c2ccc(Cc3cc(C(=O)N[C@H]4CCC[C@@H]4O)nn3C3CCCC3)cc2)cn1` [17m], for which, in experiment [1], the “rM1 %ACh Max ± SEM” value turned out to be 73 ± 5.3 %ACh Max and the EC50 was 1.58 µM. Besides, in experiment [2], the “hM1 %ACh Max ± SEM” value came to 76 ± 10 %ACh Max and the EC50 was 2.14 µM.

In the case of `Cn1cc(-c2ccc(Cc3cc(C(=O)N[C@H]4CCOC[C@@H]4O)nn3C3CCOC3)cc2)cn1` (stereo partly shown) [17j], in experiment [1], the “rM1 %ACh Max ± SEM” value turned out to be 75 ± 7.6 %ACh Max and the EC50 was 0.562 µM. Also, in experiment [2], the “hM1 %ACh Max ± SEM” value amounted to 71 ± 4.1 %ACh Max and the EC50 is 1.2 µM.

As to `Cn1cc(-c2ccc(Cc3cc(C(=O)N[C@H]4CCCCC[C@@H]4O)nn3-c3ccccc3)cc2)cn1` [17e], in experiment [1], the “rM1 %ACh Max ± SEM” value is recorded as 80 ± 3.2 %ACh Max and the EC50 was 3.47 µM. Further, in experiment [2], the “hM1 %ACh Max ± SEM” value turned out to be 72 ± 2.6 %ACh Max and the EC50 was 4.57 µM.

`CC(C)n1nc(C(=O)N[C@H]2CCOC[C@@H]2O)cc1Cc1ccc(-c2cnn(C)c2)cc1` [17i]: the “rM1 pEC50 ± SEM” value in experiment [1] is listed as “Inactive (n = 3) Inactive (n = 3)”. The “hM1 pEC50 ± SEM” value in experiment [2] is reported as “Inactive (n = 3) Inactive (n = 3)”.
